The values that follow are results of earlier work, collected in paper PMC5601361, “Targeting the Receptor for Advanced Glycation Endproducts (RAGE): A Medicinal Chemistry Perspective” (Journal of Medicinal Chemistry, 2017).

Broadly, the IC50 is the concentration needed to halve the response being measured.

The subject of series [1] is human RAGE-Aβ1–42 interaction. Details: method as in PMID 26051601. Particulars: in vitro.
In a further series the test system is HT22 cells. The note with it: 10 μM.
The test system of another series is APPswe/PS1 mice. Particulars: po 50 mg/kg every 2 days for 4 weeks; 50 mg/kg.
Another series relates to CHO cells. Details: method as in PMID 23140885. The note with it: in vitro.
The test system of another series is human RAGE-Aβ. The arrangement: method as in PMID 23140885.
For series [2], the system named is RAGE-overexpressing brain endothelial cells monolayer. The arrangement: method as in PMID 23140885. The note with it: artificial BBB system.
For series [3], the target named is human sRAGE. Details: method as in PMID 17660747. Particulars: V domain, SPR.
Series [4] has as its target human sRAGE. The note with it: SPR. (In SPR one partner is held on a chip, and binding of the other changes the refractive index at the surface.)
The target in series [5] is human sRAGE. The arrangement: method as in PMID 17508727. The note with it: SPR.
Series [6] concerns the target human sRAGE. Particulars: VC1 domain; ITC; read-out: affinity for RAGE (Kd).
Another series addresses human RAGE. Details: method as in PMID 25084534. The note with it: V domain; Ca2+-bound S100P homodimer; read-out: affinity for RAGE (Kd).

“Also recorded” adds a separate entry of the source. Read-outs that look alike come from different tables or passages of the source.

For the molecule `CC(C)(C)OC(=O)N1CCN(CCCOc2ccc(-c3nc4ccc(Oc5ccc(Cl)cc5)cc4o3)cc2)CC1` [Compound 8], the “RAGE-Aβ1–42 binding” value in series [1] was “• RAGE-Aβ1–42 binding inhibition (in vitro)”. Further, the “toxicity in HT22 cells” value in the series with HT22 cells is “not toxic”. Also, in the series on APPswe/PS1 mice, the “amyloid deposition / Aβ and amyloid plaque levels in the brain” value is given as “did not significantly affect”.
On to `CCCCc1sc(-c2ccc(OCCN3CCN(C)CC3)cc2)nc1-c1ccc(Oc2ccc(Cl)cc2)cc1` [Compound 2], for which the “Aβ1–42-associated NF-κB activation” value in the series on CHO cells is “• inhibition of Aβ1–42-associated NF-κB activation (in vitro)”. In addition, in the series with human RAGE-Aβ, the RAGE-Aβ binding result is given as “• RAGE-Aβ binding inhibition”. Also, the 50% inhibitory concentration (IC50) in the series on human RAGE-Aβ (ELISA on human RAGE-Aβ (RAGE-Aβ1–42 interaction)) was 1210 nM. Besides, the “Aβ1–42 influx / Aβ transport” value in series [2] is “Aβ transport inhibition; also recorded: • inhibition of Aβ1–42 influx in the brain”.
Take “S100B: Ca2+-binding S100/calgranulin family protein, endogenous RAGE ligand [Compound S100B]”: the Kd at human sRAGE [3] (S100B dimer, read-out: Kd) was 8300 nM; on human sRAGE [3] (S100B tetramer, read-out: Kd1) it was 1100 nM; on human sRAGE [3] (S100B tetramer, read-out: Kd2), 42 nM; at human sRAGE [4] (V domain, read-out: Kd1), 500 nM; on human sRAGE [4] (V domain, read-out: Kd2) it was 600 nM; at human sRAGE [4] (VC1 domain, read-out: Kd1) it was 11 nM. The Kd at human sRAGE [4] (VC1 domain, read-out: Kd2) was 200 nM; on human sRAGE [5] (V domain, read-out: Kd1), 550 nM; at human sRAGE [5] (V domain, read-out: Kd2), 470 nM; at human sRAGE [5] (VC1 domain, read-out: Kd1) it was 11 nM; on human sRAGE [5] (VC1 domain, read-out: Kd2), 244 nM; at human sRAGE [6], 3200 to 9400 nM.

B1: S100P: S100 family protein binding the RAGE V domain (protein, UniProt P25815 1-95, looked up)
Protein S100-P: MTELETAMGMIIDVFSRYSGSEGSTQTLTKGELKVLMEKELPGFLQSGKDKDAVDKLLKDLDANGDAQVDFSEFIVFVAAITSACHKYFEKAGLK
Take B1: at human RAGE, the Kd was 6000 nM.
